Here are results for six compounds from ChEMBL document CHEMBL3045393, “Aryldiones incorporating a [1,4,5]oxadiazepane ring. Part I: Discovery of the novel cereal herbicide pinoxaden” (Bioorg Med Chem, 2009).

The term half-life denotes the time in which the quantity being followed falls by half. Read a high half-life as slow loss.

The test system of data set [1] is Lolium rigidum. Put plainly: Post-emergence herbicidal activity against Lolium rigidum at 30 g a.i./ha measured after 20 days in presence of cloquintocet-mexyl. The data set is classed as functional.
Data set [2] relates to Triticum aestivum. Put plainly: Phytotoxicity against Triticum aestivum cv. Remia (wheat) at 60 g a.i./ha applied post-emergence measured after 12 days in presence of cloquintocet-mexyl. In kind it is functional.
Data set [3] has as its system Triticum aestivum. Kind of data set: Phytotoxicity against Triticum aestivum cv. Remia (wheat) at 60 g a.i./ha applied post-emergence measured after 12 days. In kind it is functional.
Data set [4] concerns Triticum aestivum. Kind of data set: Phytotoxicity against Triticum aestivum (wheat) at 30 g a.i./ha applied post-emergence measured after 21 days in presence of 1% Merge adjuvant. In kind it is organism-based. The settings on record: in vivo, other, 504 h.
Data set [5] deals with Lolium perenne. Put plainly: Post-emergence herbicidal activity against Lolium perenne (perennial ryegrass) at 30 g a.i./ha measured after 21 days in presence of 1% Merge adjuvant. In kind it is functional.
Data set [6] deals with Avena fatua. Put plainly: Post-emergence herbicidal activity against Avena fatua at 30 g a.i./ha measured after 20 days. In kind it is functional.
Data set [7] has as its system Triticum aestivum. Put plainly: Phytotoxicity against Triticum aestivum cv. Arina (wheat) at 60 g a.i./ha applied post-emergence measured after 12 days. The data set is classed as functional.
The test system of data set [8] is Hordeum vulgare. Put plainly: Phytotoxicity against Hordeum vulgare cv. Fanfare (barley) at 60 g a.i./ha applied post-emergence measured after 12 days in presence of cloquintocet-mexyl. In kind it is functional.
In data set [9] the test system is Alopecurus myosuroides. Put plainly: Post-emergence herbicidal activity against Alopecurus myosuroides at 30 g a.i./ha measured after 21 days in presence of 1% Merge adjuvant. In kind it is functional.
Data set [10] has as its system Triticum aestivum. Put plainly: Phytotoxicity against Triticum aestivum cv. Arina (wheat) at 60 g a.i./ha applied post-emergence measured after 12 days in presence of cloquintocet-mexyl. In kind it is functional.
The nature of data set [11]: Half life of hydrolysis at pH 7 at 50 degC. The settings on record: buffer. In kind it is ADME.
Data set [12] concerns Avena fatua. Put plainly: Post-emergence herbicidal activity against Avena fatua at 30 g a.i./ha measured after 21 days in presence of 1% Merge adjuvant. In kind it is functional.
For data set [13], the system named is Hordeum vulgare. Put plainly: Phytotoxicity against Hordeum vulgare cv. Fanfare (barley) at 60 g a.i./ha applied post-emergence measured after 12 days. The data set is classed as functional.
Data set [14] deals with Avena fatua. Put plainly: Post-emergence herbicidal activity against Avena fatua at 30 g a.i./ha measured after 20 days in presence of cloquintocet-mexyl. The data set is classed as functional.
The test system of data set [15] is Lolium rigidum. Kind of data set: Post-emergence herbicidal activity against Lolium rigidum at 30 g a.i./ha measured after 20 days. In kind it is functional.
For data set [16], the system named is Hordeum vulgare. Kind of data set: Phytotoxicity against Hordeum vulgare (barley) at 30 g a.i./ha applied post-emergence measured after 21 days in presence of 1% Merge adjuvant. The data set is classed as organism-based. The settings on record: in vivo, other, 504 h.
In data set [17] the test system is Setaria faberi. Put plainly: Post-emergence herbicidal activity against Setaria faberi (Giant Foxtail) at 30 g a.i./ha measured after 21 days in presence of 1% Merge adjuvant. In kind it is functional.
Data set [18] has as its system Triticum aestivum. Kind of data set: Phytotoxicity against Triticum aestivum (wheat) at 250 g a.i./ha applied post-emergence measured after 21 days in presence of 1% Merge adjuvant. The data set is classed as organism-based. The settings on record: in vivo, other, 504 h.
For data set [19], the system named is Avena fatua. Put plainly: Post-emergence herbicidal activity against Avena fatua at 250 g a.i./ha measured after 21 days in presence of 1% Merge adjuvant. The data set is classed as functional.
Data set [20] deals with Hordeum vulgare. Kind of data set: Phytotoxicity against Hordeum vulgare (barley) at 250 g a.i./ha applied post-emergence measured after 21 days in presence of 1% Merge adjuvant. In kind it is organism-based. The settings on record: in vivo, other, 504 h.
For data set [21], the system named is Alopecurus myosuroides. Kind of data set: Post-emergence herbicidal activity against Alopecurus myosuroides at 250 g a.i./ha measured after 21 days in presence of 1% Merge adjuvant. The data set is classed as functional.
The test system of data set [22] is Setaria faberi. Kind of data set: Post-emergence herbicidal activity against Setaria faberi (Giant Foxtail) at 250 g a.i./ha measured after 21 days in presence of 1% Merge adjuvant. The data set is classed as functional.
Data set [23] relates to Lolium perenne. Put plainly: Post-emergence herbicidal activity against Lolium perenne (perennial ryegrass) at 250 g a.i./ha measured after 21 days in presence of 1% Merge adjuvant. The data set is classed as functional.
Data set [24] deals with Avena fatua. Kind of data set: Post-emergence herbicidal activity against Avena fatua at 125 g a.i./ha measured after 21 days in presence of 0.2% X-77 adjuvant. The data set is classed as functional.
Data set [25] relates to Setaria faberi. Kind of data set: Post-emergence herbicidal activity against Setaria faberi (Giant Foxtail) at 125 g a.i./ha measured after 21 days in presence of 0.2% X-77 adjuvant. In kind it is functional.
For data set [26], the system named is Hordeum vulgare. Kind of data set: Phytotoxicity against Hordeum vulgare (barley) at 125 g a.i./ha applied post-emergence measured after 21 days in presence of 0.2% X-77 adjuvant. The data set is classed as organism-based. The settings on record: in vivo, other, 504 h.
For data set [27], the system named is Triticum aestivum. Kind of data set: Phytotoxicity against Triticum aestivum (wheat) at 125 g a.i./ha applied post-emergence measured after 21 days in presence of 0.2% X-77 adjuvant. In kind it is organism-based. The settings on record: in vivo, other, 504 h.
Data set [28] deals with Lolium perenne. Put plainly: Post-emergence herbicidal activity against Lolium perenne (perennial ryegrass) at 125 g a.i./ha measured after 21 days in presence of 0.2% X-77 adjuvant. The data set is classed as functional.
The test system of data set [29] is Alopecurus myosuroides. Kind of data set: Post-emergence herbicidal activity against Alopecurus myosuroides at 125 g a.i./ha measured after 21 days in presence of 0.2% X-77 adjuvant. In kind it is functional.

As to `CCc1cc(C)cc(CC)c1-c1c(OC(=O)C(C)(C)C)n2n(c1=O)CCOCC2` [PINOXADEN], the Activity with Lolium rigidum [1] came to 95%; in the data set on Triticum aestivum [2] it was 0%; in the data set with Triticum aestivum [3], 30%; with Triticum aestivum [4], 10%; in the data set with Lolium perenne [5], 100%; in the data set with Avena fatua [6], 90%. In addition, the Activity is listed as 30% in the data set on Triticum aestivum [7]; 0% with Hordeum vulgare [8]; 100% in the data set on Alopecurus myosuroides [9]; 0% in the data set on Triticum aestivum [10]; 100% in the data set on Avena fatua [12]; 20% in the data set on Hordeum vulgare [13]. For the same compound, the Activity with Avena fatua [14] worked out at 90%; in the data set on Lolium rigidum [15] it was 90%; with Hordeum vulgare [16], 0%; with Setaria faberi [17] it was 90%. This compound showed a half-life in [11] of 20.6 h.

Turning to `CCc1cc(C)cc(CC)c1C1C(=O)N2CCOCCN2C1=O` [PINOXADEN DIONE], the Activity in the data set with Lolium rigidum [1] was found to be 90%; in the data set with Triticum aestivum [2], 0%; in the data set with Triticum aestivum [3], 50%; in the data set with Triticum aestivum [4], 10%; with Lolium perenne [5], 90%; in the data set with Avena fatua [6], 90%. For the same compound, the Activity in the data set on Triticum aestivum [7] was 20%; in the data set on Hordeum vulgare [8], 0%; in the data set with Alopecurus myosuroides [9] it was 100%; in the data set with Triticum aestivum [10], 0%; in the data set on Avena fatua [12], 100%; with Hordeum vulgare [13], 40%. For the same compound, the Activity amounted to 90% in the data set on Avena fatua [14], 90% with Lolium rigidum [15], 0% in the data set with Hordeum vulgare [16] and 90% with Setaria faberi [17].

On to `Cc1cc(C)c(C2C(=O)N3CCCOCN3C2=O)c(C)c1` (stereo not drawn), for which the Activity is 10% in the data set with Triticum aestivum [18]; 0% in the data set with Avena fatua [19]; 10% in the data set on Hordeum vulgare [20]; 0% in the data set on Alopecurus myosuroides [21]; 50% in the data set with Setaria faberi [22]; 20% in the data set on Lolium perenne [23].

`CCCCCCCS(=O)(=O)Oc1c(-c2c(CC)cc(C)cc2CC)c(=O)n2n1CCOCC2`: the Activity with Triticum aestivum [4] was 20%; in the data set on Lolium perenne [5], 100%; with Alopecurus myosuroides [9] it was 80%; with Avena fatua [12] it was 100%; with Hordeum vulgare [16] it was 0%; with Setaria faberi [17], 90%. In data set [11], the half-life was 3 h.

Regarding `CCc1cc(C)cc(CC)c1C1C(=O)N2CCCCN2C1=O`, the Activity in the data set with Avena fatua [24] worked out at 100%; with Setaria faberi [25], 80%; with Hordeum vulgare [26], 90%; in the data set on Triticum aestivum [27], 80%; in the data set on Lolium perenne [28] it was 90%; in the data set on Alopecurus myosuroides [29], 90%.

Take `Cc1cc(C)c(C2C(=O)N3CCOCN3C2=O)c(C)c1` (stereo not drawn): the Activity in the data set with Triticum aestivum [18] stood at 20%; in the data set with Avena fatua [19], 90%; in the data set with Hordeum vulgare [20], 0%; with Alopecurus myosuroides [21] it was 40%; with Setaria faberi [22] it was 90%; with Lolium perenne [23], 90%.
